Results as given in publication PMC11249646, “Small-Molecule Disruptors of the Interaction between Calcium- and Integrin-Binding Protein 1 and Integrin αIIbβ3 as Novel Antiplatelet Agents” (ACS Pharmacology & Translational Science, 2024).
Where two headings read alike, the source gives them in different places.

Columns and labels:
[1] = target: T1, CIB1 and αIIb interaction (CIB1-GST : F-αIIb peptide) (Homo sapiens, UniProt Q99828); test: FP assay, 1536-well qHTS format (primary and confirmatory screen); type: binding; settings: for CONFIRMATORY SCREEN Curve Class / Curve Class (confirmatory screen): qHTS curve class
T1 construct: made in house; host or cells: BL-21 plus RIL cells (E. coli)
T1 sequence (Q99828 1-191): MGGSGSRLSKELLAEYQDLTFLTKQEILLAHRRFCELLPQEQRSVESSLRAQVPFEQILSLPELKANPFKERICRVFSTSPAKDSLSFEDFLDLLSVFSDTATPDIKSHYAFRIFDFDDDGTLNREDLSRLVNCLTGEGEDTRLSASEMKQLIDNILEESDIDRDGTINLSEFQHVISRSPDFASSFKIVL

[2] = target: T2, GST-CIB1 : F-scrambled peptide (Homo sapiens, UniProt Q99828); test: FP scrambled-peptide counter screen, 1536-well format; type: binding; settings: for COUNTERSCREEN Curve Class / Curve Class (counterscreen): qHTS curve class; for IC50: read-out: IC50 [μM] (counterscreen)
T2 construct: made in house; host or cells: BL-21 plus RIL cells (E. coli)
T2 sequence (Q99828 1-191): T1 sequence (Q99828 1-191)

[3] = qHTS primary screen hits, Table S2, negative = inhibition
[4] = qHTS primary screen hits, Table S2, negative sign = inhibitory curve, several classes where COUNT > 1
[5] = qHTS primary screen hits, Table S2, read-out: IC50
[6] = Table S3, confirmatory screen, a negative sign marks inhibitory curves
[7] = Table S3, confirmatory screen, negative = inhibition
[8] = qHTS primary screen hits, Table S2, negative sign = inhibitory curve
[9] = Table S3, counterscreen, negative = inhibition
[10] = confirmatory screen, negative sign = inhibitory curve
[11] = counterscreen, negative sign = inhibitory curve
[12] = qHTS FP screen hits, Table S2, negative = inhibition
[13] = qHTS FP screen hits, Table S2, one class per curve where COUNT > 1, negative sign = inhibitory curve
[14] = qHTS FP screen hits, Table S2, read-out: IC50
[15] = Table S3, counterscreen, YES/NO call
[16] = Table S3, counterscreen, a negative sign marks inhibitory curves
[17] = Table S3, confirmatory screen, YES/NO call
[18] = Table S3, confirmatory screen, read-out: IC50 [μM] (confirmatory screen)
[19] = confirmatory screen, YES/NO call
[20] = confirmatory screen, negative = inhibition
[21] = scrambled-peptide counterscreen
[22] = scrambled-peptide counterscreen, YES/NO call

| SMILES | Efficacy (%) [1, 3] | Curve Class [1, 4] | IC50 [1, 5] | Curve Class (confirmatory screen) [1, 6] | Efficacy (%) (confirmatory screen) [1, 7] | Efficacy (%) (counterscreen) [2, 9] | IC50 ([2]; Table S3, counterscreen) | Efficacy (%) [1, 12] | IC50 [1, 14] | Curve Class (counterscreen) [2, 16] | also measured |
| --- | --- | --- | --- | --- | --- | --- | --- | --- | --- | --- | --- |
| O=C(O)C(F)(F)F.O=C1Nc2ccccc2/C1=N/NC(=S)Nc1cccnc1 [NCGC00242647-01] | -32% | -1.4 | 17.8 µM | – | – | – | – | – | – | – | CONFIRMATORY SCREEN Efficacy (%) ([1]; confirmatory screen): -44%; CONFIRMATORY SCREEN Curve Class ([1]; confirmatory screen): 4; COUNTERSCREEN Efficacy (%) ([2]; counterscreen): -17%; COUNTERSCREEN Curve Class ([2]; counterscreen): 4 |
| CCc1ccc(NC(=O)C(=O)NNC(=O)c2cccs2)cc1.O=C(O)C(F)(F)F [NCGC00244112-01] | -22% | – | 3.2 µM | 4 | 0% | 71% | 89.1 µM | – | – | – | Curve Class [1, 8]: -1.4 |
| Cc1cc(C)nc(NC(=S)N2CCN(c3ccc4nsnc4c3)CC2)c1.O=C(O)C(F)(F)F [NCGC00244160-01] | -85% | -2.1 | 50.1 µM | – | – | – | – | – | – | – | Efficacy (%) (confirmatory screen) ([1]; confirmatory screen): -106%; Confirm? (confirmatory screen) ([1]; confirmatory screen, YES/NO): YES; Curve Class (confirmatory screen) [1, 10]: -2.1; Efficacy (%) (counterscreen) ([2]; counterscreen): -93%; Curve Class (counterscreen) [2, 11]: -2.2; IC50 ([2]; counterscreen): 39.8 µM |
| FC(F)(F)c1cccc(N2CCN(C(=S)Nc3nccc4cccnc34)CC2)c1.O=C(O)C(F)(F)F [NCGC00244201-01] | – | – | – | – | – | – | – | -55% | 28.2 µM | – | Efficacy (%) (confirmatory screen) ([1]; confirmatory screen): -88%; Confirm? (confirmatory screen) ([1]; confirmatory screen, YES/NO): YES; Curve Class (confirmatory screen) [1, 10]: -2.2; Curve Class [1, 13]: -1.2; Efficacy (%) (counterscreen) ([2]; counterscreen): -43%; Curve Class (counterscreen) [2, 11]: -1.2; IC50 ([2]; counterscreen): 22.4 µM |
| O=C(NCCCN1CCNCC1)c1cccc(-c2cc(O)c3ncccc3c2)c1.O=C(O)C(F)(F)F [NCGC00244531-01] | – | – | – | 4 | -33% | -52% | 35.5 µM | -46% | 39.8 µM | -1.2 | Curve Class [1, 13]: -2.2; Confirm? (counterscreen) [2, 15]: YES |
| COc1ccc(CC(=O)Nc2ccc(S(=O)(=O)Nc3cc(C)on3)cc2)cc1C.O=C(O)C(F)(F)F [NCGC00244861-01] | -19% | -1.4 | 11.2 µM | – | – | – | – | – | – | – | Efficacy (%) (confirmatory screen) ([1]; confirmatory screen): -69%; Confirm? (confirmatory screen) ([1]; confirmatory screen, YES/NO): YES; Curve Class (confirmatory screen) [1, 10]: -2.4; IC50 ([1]; confirmatory screen, read-out: IC50 [μM] (confirmatory screen)): 39.8 µM; Efficacy (%) (counterscreen) ([2]; counterscreen): -14%; Confirm? (counterscreen) ([2]; counterscreen, YES/NO): YES; Curve Class (counterscreen) [2, 11]: 4 |
| Cc1cc(NS(=O)(=O)c2ccc(NC(=O)Cc3ccc(F)c(Cl)c3)cc2)no1.O=C(O)C(F)(F)F [NCGC00244873-01] | – | – | – | – | – | – | – | -25% | 10 µM | – | CONFIRMATORY SCREEN Efficacy (%) ([1]; confirmatory screen): -48%; CONFIRMATORY SCREEN Curve Class ([1]; confirmatory screen): 4; COUNTERSCREEN Efficacy (%) ([2]; counterscreen): -17%; COUNTERSCREEN Curve Class ([2]; counterscreen): 4 |
| Cc1cc(NS(=O)(=O)c2ccc(NC(=O)Cc3cccc4ccccc34)cc2)no1.O=C(O)C(F)(F)F [NCGC00244880-01] | -21% | -1.4 | 17.8 µM | -2.2 | -48% | -64% | 20 µM | – | – | -2.2 | Confirm? (confirmatory screen) [1, 17]: YES; IC50 [1, 18]: 31.6 µM |
| Cc1coc2c1C(=O)C(=O)c1c-2ccc2c(C)cccc12 [NCGC00247624-03] | – | – | – | – | – | – | – | -40% | 39.8 µM | – | Efficacy (%) (confirmatory screen) ([1]; confirmatory screen): -85%; Confirm? (confirmatory screen) ([1]; confirmatory screen, YES/NO): YES; Curve Class (confirmatory screen) [1, 10]: -2.2; Curve Class [1, 13]: -2.2; Efficacy (%) (counterscreen) ([2]; counterscreen): -73%; Curve Class (counterscreen) [2, 11]: -2.2; IC50 ([2]; counterscreen): 44.7 µM |
| CN(C)CCc1c[nH]c2cccc(O)c12 [NCGC00247728-01] | -105% | -2.3 | 28.2 µM | -2.2 | -101% | -126% | 89.1 µM | – | – | -2.1 | Confirm? (confirmatory screen) [1, 17]: YES; IC50 [1, 18]: 112 µM |
| CN(C)CC1CCCN(C2CCN(C(=O)c3cccc(-c4cc(O)c5ncccc5c4)c3)CC2)C1.O=C(O)C(F)(F)F (stereo not drawn) [NCGC00247737-01] | – | – | – | 4 | -41% | -46% | 39.8 µM | -45% | 22.4 µM | -2.2 | Curve Class [1, 13]: -1.2; Confirm? (counterscreen) [2, 15]: YES |
| CN(C)CCCCCCNC(=O)c1cccc(-c2cc(O)c3ncccc3c2)c1.O=C(O)C(F)(F)F [NCGC00247743-01] | -33% | -1.2 | 22.4 µM | 4 | -35% | -55% | 44.7 µM | – | – | -2.4 | Confirm? (counterscreen) [2, 15]: YES |
| O=C(Nc1nc(-c2ccccc2)cs1)c1ccccc1NS(=O)(=O)c1ccc(F)cc1.O=C(O)C(F)(F)F [NCGC00247844-02] | -24% | -1.4 | 17.8 µM | 3 | 48% | 102% | 50.1 µM | – | – | – | – |
| O=C(Cc1ccc(Cl)c(Cl)c1)Nc1ccc(S(=O)(=O)Nc2nncs2)cc1.O=C(O)C(F)(F)F [NCGC00248349-02] | -24% | – | 11.2 µM | – | – | – | – | – | – | – | CONFIRMATORY SCREEN Confirm? [1, 19]: YES; CONFIRMATORY SCREEN Curve Class [1, 10]: -1.4; CONFIRMATORY SCREEN Efficacy (%) [1, 20]: -31%; IC50 ([1]; confirmatory screen, read-out: CONFIRMATORY SCREEN IC50): 12.6 µM; Curve Class [1, 8]: -1.4; COUNTERSCREEN Efficacy (%) [2, 21]: 12%; COUNTERSCREEN Confirm? [2, 22]: YES; COUNTERSCREEN Curve Class [2, 21]: 4 |
| O=C(Cc1ccc(Cl)c(Cl)c1)Nc1ccc(S(=O)(=O)Nc2cccc(C(=O)O)c2)cc1.O=C(O)C(F)(F)F [NCGC00248362-01] | -20% | – | 12.6 µM | – | – | – | – | – | – | – | CONFIRMATORY SCREEN Confirm? [1, 19]: YES; CONFIRMATORY SCREEN Curve Class [1, 10]: -1.4; CONFIRMATORY SCREEN Efficacy (%) [1, 20]: -27%; Curve Class [1, 8]: -1.4; COUNTERSCREEN Efficacy (%) [2, 21]: 26%; COUNTERSCREEN Confirm? [2, 22]: YES; COUNTERSCREEN Curve Class [2, 21]: 4 |
| O=C(Cc1ccc(Cl)c(Cl)c1)Nc1ccc(S(=O)(=O)Nc2cnccn2)cc1.O=C(O)C(F)(F)F [NCGC00248365-02] | – | – | – | – | – | – | – | -26% | 17.8 µM | – | Efficacy (%) (confirmatory screen) ([1]; confirmatory screen): -30%; Confirm? (confirmatory screen) ([1]; confirmatory screen, YES/NO): YES; Curve Class (confirmatory screen) [1, 10]: -1.4; Efficacy (%) (counterscreen) ([2]; counterscreen): -24%; Confirm? (counterscreen) ([2]; counterscreen, YES/NO): YES; Curve Class (counterscreen) [2, 11]: 4 |
| Cc1c2c(=O)n(-c3ccccc3)[nH]c2cc(=O)n1-c1cccnc1.O=C(O)C(F)(F)F [NCGC00248472-01] | – | – | – | 4 | -23% | -60% | 39.8 µM | -31% | 39.8 µM | -2.2 | Confirm? (counterscreen) [2, 15]: YES |
| O=C(c1cc(O)c(O)c(O)c1)c1ccc(O)c(O)c1O [NCGC00249050-02] | -42% | -2.2 | 39.8 µM | -2.1 | -86% | -99% | 25.1 µM | – | – | -1.1 | Confirm? (confirmatory screen) [1, 17]: YES; IC50 [1, 18]: 25.1 µM |
